Two molecules from publication PMC7773843 (Frontiers in Pharmacology, 2020) can be followed below.

One may read the IC50 as the midpoint of a concentration-inhibition curve. By Kd is commonly meant the free concentration of one partner at which half of the binding sites on the other are occupied at equilibrium, for simple one-to-one binding.

Test [1] deals with PANC-1. The experiment in a line: cells. Also noted: anti-proliferative / cytotoxicity assay on cell lines, IC50. The settings on record: Homo sapiens, PANC-1, read-out: IC50 (µM). The source says:
(§1) As shown in SPR and ITC data, the binding affinity of OC to Cath B was weaker than that of OC to HSPA8, justifying our selection of HSPA8 for further studies. To evaluate whether OC potentially binds to HSPA8 in cell lysates, we synthesized OC_biotin ([Wang et al., 2016]; Supplementary Figure S8) and performed a pulldown assay using avidin beads. We first examined whether OC_biotin has the same binding affinity with that of OC to HSPA8 using SPR and ITC assays. […] We then examined the anticancer activities of OC_biotin and OC in several cancer cell lines. As shown in Supplementary Table S4, OC_biotin exerted similar anti-proliferative activity to that of OC in multiple cancer cell lines, with IC50 ranging from 5 to 20 µM. […] By using HeLa cells that stably expressed GFP-LC3, we measured the GFP-LC3 puncta increment upon OC, OC_biotin and Hydroxychloroquine (HCQ) treatment. […] Avidin beads were used to perform the OC_biotin immunoprecipitation assay with cell lysates. Consistent with the SPR and ITC assays, we pulled down HSPA8 using cell lysates.

The subject of test [2] is Hela. The experiment in a line: cells. Also on record: anti-proliferative / cytotoxicity assay on cell lines, IC50. The settings on record: Homo sapiens, HeLa, read-out: IC50 (µM).
Excerpt: as §1

The subject of test [3] is MDA-MB-231. The experiment in a line: cells. Also noted: anti-proliferative / cytotoxicity assay on cell lines, IC50. The settings on record: Homo sapiens, MDA-MB-231, read-out: IC50 (µM).
Excerpt: as §1

Test [4] relates to A549. The experiment in a line: cells. Also noted: anti-proliferative / cytotoxicity assay on cell lines, IC50. The conditions noted are these: Homo sapiens, A549, read-out: IC50 (µM).
Excerpt: as §1

Test [5] deals with HL-7702. The experiment in a line: cells. Also on record: anti-proliferative / cytotoxicity assay on cell lines, IC50. The settings on record: Homo sapiens, L02, read-out: IC50 (µM) HL-7702.
Excerpt: as §1

In test [6] the test system is PC-3. The experiment in a line: cells. Also noted: anti-proliferative / cytotoxicity assay on cell lines, IC50. The settings on record: Homo sapiens, PC-3, read-out: IC50 (µM).
Excerpt: as §1

Test [7] concerns HCT116-DKO. The experiment in a line: cells. Also noted: anti-proliferative / cytotoxicity assay on cell lines, IC50. The conditions noted are these: read-out: IC50 (µM).
Excerpt: as §1

For test [8], the target named is T1, heat shock 70 kDa protein 8 (HSPA8) (Homo sapiens, UniProt P11142).
T1 construct: Full-length HSPA8, his-tagged, expressed in E. coli
T1 sequence (P11142 whole entry): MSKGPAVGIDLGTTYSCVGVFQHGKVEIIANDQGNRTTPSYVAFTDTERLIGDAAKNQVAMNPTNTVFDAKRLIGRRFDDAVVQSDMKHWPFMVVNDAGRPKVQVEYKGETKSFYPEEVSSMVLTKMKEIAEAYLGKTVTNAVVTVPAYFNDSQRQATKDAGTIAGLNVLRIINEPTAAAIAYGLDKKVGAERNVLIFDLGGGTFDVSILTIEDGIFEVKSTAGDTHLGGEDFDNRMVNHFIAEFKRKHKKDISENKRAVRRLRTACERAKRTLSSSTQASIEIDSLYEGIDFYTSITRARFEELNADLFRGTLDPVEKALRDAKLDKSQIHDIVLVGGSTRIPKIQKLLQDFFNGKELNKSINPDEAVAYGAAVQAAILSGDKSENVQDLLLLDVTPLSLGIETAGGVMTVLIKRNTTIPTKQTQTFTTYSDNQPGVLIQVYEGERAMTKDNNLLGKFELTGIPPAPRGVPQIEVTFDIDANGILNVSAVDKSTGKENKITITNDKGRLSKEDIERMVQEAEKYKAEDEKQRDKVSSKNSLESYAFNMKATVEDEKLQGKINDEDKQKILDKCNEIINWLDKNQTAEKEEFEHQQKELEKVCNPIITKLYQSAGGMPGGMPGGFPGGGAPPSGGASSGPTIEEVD
The experiment in a line: ITC (KD […]); SPR KD […] ([…] also printed); thermal shift lowers Tm by ~[…]°C. The test is classed as binding.

Test [9] has as its target T2, cathepsin B (Cath B) (Homo sapiens, UniProt P07858).
T2 construct: gene CTSB
The experiment in a line: ITC (KD […]); SPR KD […]; protease activity IC50 […]. The test is classed as binding.

For `CC(C)=CCC/C(C)=C/C[C@@H]1C[C@]2(CC=C(C)C)C(=O)[C@@](CC=C(C)C)(C(=O)C(C(=O)c3ccc(O)c(O)c3)=C2O)[C@@]1(C)CCC=C(C)C` [OC, Oblongifolin C], the IC50 worked out at 17.5 ± 0.9 µM in [1]; 11 ± 1.2 µM in test [2]; 15.9 ± 1.1 µM in [3]; 7.49 ± 0.9 µM in [4]; 5.16 ± 0.4 µM in test [5]; 10.7 ± 0.6 µM in test [6]. Also, the IC50 in test [7] came to 12.2 ± 0.9 µM. In addition, the Kd in test [8] was determined as 6.2 µM; in test [9] it was 25.6 µM.

Turning to `COc1cc([C@@H]2c3cc4c(cc3[C@@H](O[C@@H]3O[C@@H]5CO[C@@H](C)O[C@H]5[C@H](O)[C@H]3O)[C@H]3COC(=O)[C@H]23)OCO4)cc(OC)c1O` [Etoposide], the IC50 in test [1] came out at 22.7 ± 1.7 µM; in test [5], 1.42 ± 0.2 µM.
